Experimental data: PubChem BioAssay (NCI)
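Assay format: 96-well plates, 48-hour exposure. GI50 = concentration required for 50% inhibition of growth. TGI denotes the concentration required for complete inhibition of growth.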

Columns and labels:
Test in all cases: inhibition of tumour cell growth, NCI panel, 48 h
786-0 renal = system: 786-0 renal
A498 renal = system: A498 renal
A549 NSCLC = system: A549 NSCLC
ACHN renal = system: ACHN renal
BT-549 breast = system: BT-549 breast
CAKI-1 renal = system: CAKI-1 renal
CCRF-CEM leukemia = system: CCRF-CEM leukemia
COLO 205 colon = system: COLO 205 colon
DU-145 prostate = system: DU-145 prostate
EKVX NSCLC = system: EKVX NSCLC
HCC-2998 colon = system: HCC-2998 colon
HCT-116 colon = system: HCT-116 colon
HCT-15 colon = system: HCT-15 colon
HL-60(TB) leukemia = system: HL-60(TB) leukemia
HOP-62 NSCLC = system: HOP-62 NSCLC
HOP-92 NSCLC = system: HOP-92 NSCLC
HS 578T breast = system: HS 578T breast
HT29 colon = system: HT29 colon
IGROV1 ovarian = system: IGROV1 ovarian
K-562 leukemia = system: K-562 leukemia
KM12 colon = system: KM12 colon
LOX IMVI melanoma = system: LOX IMVI melanoma
M14 melanoma = system: M14 melanoma
MALME-3M melanoma = system: MALME-3M melanoma
MCF7 breast = system: MCF7 breast
MDA-MB-231 breast = system: MDA-MB-231 breast
MDA-MB-435 = system: MDA-MB-435
MDA-MB-468 breast = system: MDA-MB-468 breast
MOLT-4 leukemia = system: MOLT-4 leukemia
NCI-H226 lung = system: NCI-H226 lung
NCI-H23 lung = system: NCI-H23 lung
NCI-H460 lung = system: NCI-H460 lung
NCI-H522 lung = system: NCI-H522 lung
NCI/ADR-RES ovarian = system: NCI/ADR-RES ovarian
OVCAR-3 ovarian = system: OVCAR-3 ovarian
OVCAR-4 ovarian = system: OVCAR-4 ovarian
OVCAR-5 ovarian = system: OVCAR-5 ovarian
OVCAR-8 ovarian = system: OVCAR-8 ovarian
PC-3 prostate = system: PC-3 prostate
RPMI-8226 leukemia = system: RPMI-8226 leukemia
RXF 393 renal = system: RXF 393 renal
SF-268 CNS = system: SF-268 CNS
SF-295 CNS = system: SF-295 CNS
SF-539 CNS = system: SF-539 CNS
SK-MEL-2 melanoma = system: SK-MEL-2 melanoma
SK-MEL-28 melanoma = system: SK-MEL-28 melanoma
SK-MEL-5 melanoma = system: SK-MEL-5 melanoma
SK-OV-3 ovarian = system: SK-OV-3 ovarian
SN12C renal = system: SN12C renal
SNB-19 CNS = system: SNB-19 CNS
SNB-75 CNS = system: SNB-75 CNS
SR leukemia = system: SR leukemia
SW-620 colon = system: SW-620 colon
T-47D breast = system: T-47D breast
TK-10 renal = system: TK-10 renal
U251 CNS = system: U251 CNS
UACC-257 melanoma = system: UACC-257 melanoma
UACC-62 melanoma = system: UACC-62 melanoma
UO-31 renal = system: UO-31 renal

SMILES: O=C(CNc1nc(-c2ccccc2)cs1)Nc1ccccc1
- GI50 (786-0 renal): 2.63 µM
- TGI (786-0 renal): 5.48 µM
- GI50 (A498 renal): 11.1 µM
- TGI (A498 renal): 23.5 µM
- GI50 (A549 NSCLC): 3.25 µM
- TGI (A549 NSCLC): 13.5 µM
- GI50 (ACHN renal): 2.6 µM
- TGI (ACHN renal): 10.6 µM
- GI50 (BT-549 breast): 2.25 µM
- TGI (BT-549 breast): 4.23 µM
- GI50 (CAKI-1 renal): 2.2 µM
- TGI (CAKI-1 renal): 10.6 µM
- GI50 (CCRF-CEM leukemia): 1.88 µM
- TGI (CCRF-CEM leukemia): > 100 µM
- GI50 (COLO 205 colon): 2.16 µM
- TGI (COLO 205 colon): 4.57 µM
- GI50 (DU-145 prostate): 3.74 µM
- TGI (DU-145 prostate): 13.4 µM
- GI50 (EKVX NSCLC): 1.58 µM
- TGI (EKVX NSCLC): 3.14 µM
- GI50 (HCC-2998 colon): 1.77 µM
- TGI (HCC-2998 colon): 3.88 µM
- GI50 (HCT-116 colon): 1.81 µM
- TGI (HCT-116 colon): 5.75 µM
- GI50 (HCT-15 colon): 1.61 µM
- TGI (HCT-15 colon): 3.36 µM
- GI50 (HL-60(TB) leukemia): 1.83 µM
- TGI (HL-60(TB) leukemia): 6.67 µM
- GI50 (HOP-62 NSCLC): 2.17 µM
- TGI (HOP-62 NSCLC): 6.31 µM
- GI50 (HOP-92 NSCLC): 3.47 µM
- TGI (HOP-92 NSCLC): 16.5 µM
- GI50 (HS 578T breast): 3.04 µM
- TGI (HS 578T breast): > 100 µM
- GI50 (HT29 colon): 2.06 µM
- TGI (HT29 colon): 4.08 µM
- GI50 (IGROV1 ovarian): 1.5 µM
- TGI (IGROV1 ovarian): 4.87 µM
- GI50 (K-562 leukemia): 2.32 µM
- TGI (K-562 leukemia): > 100 µM
- GI50 (KM12 colon): 3.87 µM
- TGI (KM12 colon): 14.9 µM
- GI50 (LOX IMVI melanoma): 1.21 µM
- TGI (LOX IMVI melanoma): 2.7 µM
- GI50 (M14 melanoma): 1.52 µM
- TGI (M14 melanoma): 3.49 µM
- GI50 (MALME-3M melanoma): 1.54 µM
- TGI (MALME-3M melanoma): 3.23 µM
- GI50 (MCF7 breast): 1.4 µM
- TGI (MCF7 breast): 3.41 µM
- GI50 (MDA-MB-231 breast): 1.93 µM
- TGI (MDA-MB-231 breast): 7.28 µM
- GI50 (MDA-MB-435): 2.05 µM
- TGI (MDA-MB-435): 5.32 µM
- GI50 (MDA-MB-468 breast): 1.55 µM
- TGI (MDA-MB-468 breast): 3.2 µM
- GI50 (MOLT-4 leukemia): 1.83 µM
- TGI (MOLT-4 leukemia): 7.46 µM
- GI50 (NCI-H226 lung): 1.94 µM
- TGI (NCI-H226 lung): 7.99 µM
- GI50 (NCI-H23 lung): 1.48 µM
- TGI (NCI-H23 lung): 3.15 µM
- GI50 (NCI-H460 lung): 2.94 µM
- TGI (NCI-H460 lung): 11.8 µM
- GI50 (NCI-H522 lung): 1.53 µM
- TGI (NCI-H522 lung): 3.02 µM
- GI50 (NCI/ADR-RES ovarian): 2.29 µM
- TGI (NCI/ADR-RES ovarian): 6.16 µM
- GI50 (OVCAR-3 ovarian): 1.93 µM
- TGI (OVCAR-3 ovarian): 4.36 µM
- GI50 (OVCAR-4 ovarian): 4.88 µM
- TGI (OVCAR-4 ovarian): 18.1 µM
- GI50 (OVCAR-5 ovarian): 2.95 µM
- TGI (OVCAR-5 ovarian): 7.03 µM
- GI50 (OVCAR-8 ovarian): 2.96 µM
- TGI (OVCAR-8 ovarian): 14.9 µM
- GI50 (PC-3 prostate): 2.96 µM
- TGI (PC-3 prostate): 30.3 µM
- GI50 (RPMI-8226 leukemia): 2.29 µM
- TGI (RPMI-8226 leukemia): 80.9 µM
- GI50 (RXF 393 renal): 1.85 µM
- TGI (RXF 393 renal): 3.86 µM
- GI50 (SF-268 CNS): 3.33 µM
- TGI (SF-268 CNS): 22.9 µM
- GI50 (SF-295 CNS): 2.48 µM
- TGI (SF-295 CNS): 11.6 µM
- GI50 (SF-539 CNS): 1.77 µM
- TGI (SF-539 CNS): 3.22 µM
- GI50 (SK-MEL-2 melanoma): 1.73 µM
- TGI (SK-MEL-2 melanoma): 4.29 µM
- GI50 (SK-MEL-28 melanoma): 2.56 µM
- TGI (SK-MEL-28 melanoma): 6.81 µM
- GI50 (SK-MEL-5 melanoma): 1.62 µM
- TGI (SK-MEL-5 melanoma): 2.98 µM
- GI50 (SK-OV-3 ovarian): 2.92 µM
- TGI (SK-OV-3 ovarian): 10.2 µM
- GI50 (SN12C renal): 1.54 µM
- TGI (SN12C renal): 3.44 µM
- GI50 (SNB-19 CNS): 1.82 µM
- TGI (SNB-19 CNS): 4.16 µM
- GI50 (SNB-75 CNS): 1.05 µM
- TGI (SNB-75 CNS): 6.68 µM
- GI50 (SR leukemia): 1.42 µM
- TGI (SR leukemia): > 100 µM
- GI50 (SW-620 colon): 2.46 µM
- TGI (SW-620 colon): 6.04 µM
- GI50 (T-47D breast): 2.57 µM
- TGI (T-47D breast): 10.2 µM
- GI50 (TK-10 renal): 4.64 µM
- TGI (TK-10 renal): 12.4 µM
- GI50 (U251 CNS): 1.56 µM
- TGI (U251 CNS): 3.34 µM
- GI50 (UACC-257 melanoma): 2.05 µM
- TGI (UACC-257 melanoma): 8.33 µM
- GI50 (UACC-62 melanoma): 1.14 µM
- TGI (UACC-62 melanoma): 2.58 µM
- GI50 (UO-31 renal): 2.37 µM
- TGI (UO-31 renal): 12.9 µM
